In US20130071439A1, “METHODS AND COMPOSITIONS FOR TREATING BIOFILMS” (PRESIDENT AND FELLOWS OF HARVARD COLLEGE, priority 2010, published 2013):

What was measured:
B. subtilis = test: Effect on cell growth in MSgg medium with shaking; assay type: cell-based, Bacillus subtilis; details: 8.5 mM
eps operon (strain FC5) = test: Expression of PepsA-lacZ (β-galactosidase activity); assay type: cell-based, Bacillus subtilis; details: 8.5 mM
Experimental: (§1) Assays of β-galactosidase activity. Cells were cultured in MSgg medium at 37° C. in a water bath with shaking 1 ml of culture was collected at each time point. β-galactosidase activity was determined as described previously (Chai et al., Mol. Microbiol. 67:254 (2008)).

[1] = test system: B. subtilis strain NCIB3610; test: Colony biofilm formation on solid MSgg medium; assay type: cell-based, Bacillus subtilis; details: 8.5 mM, 4 days
Experimental: (§2) For colony formation on solid medium, cells were first grown to exponential growth phase in LB broth and 3 μl of culture were spotted onto solid MSgg medium containing 1.5% Bacto agar. The plates were incubated at 23° C. For pellicle formation in liquid medium, cells were grown to exponential phase and 6 μl of culture were mixed with 6 ml of medium in a 12-well plate (VWR). Plates were incubated at 23° C. Images of colonies and pellicles were taken using a SPOT camera (Diagnostic Instruments, USA).

[2] = test system: B. subtilis strain NCIB3610; test: Pellicle (biofilm) formation in liquid biofilm-inducing medium; assay type: cell-based, Bacillus subtilis; details: for minimum concentration (MIC) needed to prevent biofilm formation: complete inhibition of pellicle formation; for biofilm-inhibition assay for B. subtilis: concentration not given
Experimental: as §2
To investigate whether mature biofilms produce a factor that triggers biofilm disassembly, the effect of concentrated and partially purified extracts of conditioned medium on pellicle formation when added to fresh medium was assayed. To this end, conditioned medium from an eight-day-old culture was applied to a C18 Sep Pak column. Concentrated eluate from the column was then added to a freshly inoculated culture. […] Further purification of the factor was achieved by eluting the cartridge in step-wise fashion with increasing concentrations of methanol.
D-tyrosine, D-leucine, D-tryptophan, and D-methionine were screened for inhibiting biofilm formation by B. subtilis both in liquid and on solid medium (FIG. 2A, 5, 6).
Next, the minimum concentration (MIC for Minimal Inhibitory Concentration) needed to prevent biofilm formation was determined.

[3] = test system: yqxM operon (strain FC122); test: Expression of PyqxM-lacZ (β-galactosidase activity); assay type: cell-based, Bacillus subtilis; details: 8.5 mM
Experimental: as §1

[4] = test system: Pseudomonas aeruginosa PA14; test: Biofilm formation on polystyrene, crystal violet staining; assay type: cell-based; details: Pseudomonas aeruginosa, PA14, 48 h/30° C., Polystyrene, read-out: % Inhibition relative to control (0%, <50%, 50-90%, >90%)
Experimental: Crystal violet staining was done as described previously (O'Toole et al., Mol. Microbiol. 30:295 (1998)) except that the cells were grown in […]. Wells were stained with 500 μl of 1.0% Crystal-violet dye, rinsed twice with 2 ml double-distilled water and thoroughly dried.
P. aeruginosa strain […] was grown in 12-well polystyrene plates for 48 hours at 30° C. in M63 medium containing glycerol (0.2%) and Casamino acids ([…]). Additionally added to the wells were no amino acids (untreated), D-tyrosine or the D-amino acid equimolar mixture. Cells bound to the polystyrene were visualized by washing away unbound cells and then staining with crystal violet. Wells were stained with […] of 1.0% Crystal-violet dye, rinsed twice with 2 ml double-distilled water and thoroughly dried.
For experiments reported in Table 1, the organism/strain was S.a. Harvard SCO1, the culture medium was TSB and the cell inoculation was at 2×10^9 cfu. For experiments reported in Table 2, the organism/strain was […], the culture medium was M63 and the cell inoculation was at 1.5×10^9 cfu. Biofilm was visualized using the crystal violet method.

P.a. Harvard PA14 = test: Biofilm (colony architecture) formation on M63 defined solid medium; assay type: cell-based, Pseudomonas aeruginosa; details: 500 μM (L-tryptophan: concentration not given)
Description: Similarly to Bacillus subtilis, Pseudomonas aeruginosa forms a complex architecture on defined medium. These complex structures require the proper formation and assembly of the extra-cellular matrix. […] For these experiments, the organism/strain was P.a. Harvard PA14, the culture medium was M63 and the cell inoculation was at 1.5×10^9 cfu.

CC(C)C[C@@H](N)C(=O)O [D-Leu, D-leucine]
cell growth (B. subtilis): substantially the same as the untreated sample | eps expression (eps operon (strain FC5)): substantially the same as the untreated sample | effect on biofilm formation on solid medium [1]: inhibited biofilm formation | effect on pellicle formation ([2]; 8.5 mM added to freshly inoculated culture in biofilm-inducing medium, 3 days): significant inhibition of biofilm growth | minimum concentration (MIC) needed to prevent biofilm formation [2]: around 1 mM | biofilm-inhibition assay for B. subtilis [2]: significant inhibition of biofilm growth | yqxM expression [3]: substantially the same as the untreated sample

CSCC[C@@H](N)C(=O)O [D-Met, D-methionine]
inhibition at 10 µM ([4]; 10 μM): 0% | inhibition at 100 µM ([4]; 100 μM): 0% | inhibition at 500 µM ([4]; 500 μM): 0% | effect on biofilm formation ([2]; 2 mM in MSgg medium, 3 days): active in inhibiting biofilm formation | minimum concentration (MIC) needed to prevent biofilm formation [2]: around 1 mM | biofilm-inhibition assay for B. subtilis [2]: significant inhibition of biofilm growth

N[C@H](Cc1ccccc1)C(=O)O [D-Phe, D-phenylalanine]
biofilm-inhibition assay for B. subtilis [2]: not effective

N[C@H](Cc1c[nH]c2ccccc12)C(=O)O [D-Trp, D-tryptophan]
effect on biofilm formation on defined medium (P.a. Harvard PA14): inhibited biofilm formation on defined medium | effect on biofilm formation ([2]; 0.5 mM in MSgg medium, 3 days): active in inhibiting biofilm formation | minimum concentration (MIC) needed to prevent biofilm formation [2]: around 1 mM | biofilm-inhibition assay for B. subtilis [2]: significant inhibition of biofilm growth

C[C@@H](N)C(=O)O [D-alanine]
biofilm-inhibition assay for B. subtilis [2]: not effective

N[C@@H](Cc1ccc(O)cc1)C(=O)O [L-Tyr, L-tyrosine, reference compound]
effect on biofilm formation on defined medium (P.a. Harvard PA14): did not

CSCC[C@H](N)C(=O)O [L-methionine, reference compound]
effect on biofilm formation ([2]; 5 mM in MSgg medium, 3 days): Only the D-amino acids were active

N[C@@H](Cc1c[nH]c2ccccc12)C(=O)O [L-tryptophan, reference compound]
effect on biofilm formation on defined medium (P.a. Harvard PA14): did not | effect on biofilm formation ([2]; 5 mM in MSgg medium, 3 days): Only the D-amino acids were active
